Reference: ChEMBL document CHEMBL2074085, “P-glycoprotein (P-gp/MDR1)-mediated efflux of sex-steroid hormones and modulation of P-gp expression in vitro” (Pharm Res, 2004)

The compounds below were run against ATP-dependent translocase ABCB1 (Homo sapiens, UniProt P08183) (assay: TP_TRANSPORTER: transepithelial transport in MDR1-expressing MDCK cells). Details: dog.
Format: functional, cell-based

Chain of ATP-dependent translocase ABCB1 (P08183 whole entry): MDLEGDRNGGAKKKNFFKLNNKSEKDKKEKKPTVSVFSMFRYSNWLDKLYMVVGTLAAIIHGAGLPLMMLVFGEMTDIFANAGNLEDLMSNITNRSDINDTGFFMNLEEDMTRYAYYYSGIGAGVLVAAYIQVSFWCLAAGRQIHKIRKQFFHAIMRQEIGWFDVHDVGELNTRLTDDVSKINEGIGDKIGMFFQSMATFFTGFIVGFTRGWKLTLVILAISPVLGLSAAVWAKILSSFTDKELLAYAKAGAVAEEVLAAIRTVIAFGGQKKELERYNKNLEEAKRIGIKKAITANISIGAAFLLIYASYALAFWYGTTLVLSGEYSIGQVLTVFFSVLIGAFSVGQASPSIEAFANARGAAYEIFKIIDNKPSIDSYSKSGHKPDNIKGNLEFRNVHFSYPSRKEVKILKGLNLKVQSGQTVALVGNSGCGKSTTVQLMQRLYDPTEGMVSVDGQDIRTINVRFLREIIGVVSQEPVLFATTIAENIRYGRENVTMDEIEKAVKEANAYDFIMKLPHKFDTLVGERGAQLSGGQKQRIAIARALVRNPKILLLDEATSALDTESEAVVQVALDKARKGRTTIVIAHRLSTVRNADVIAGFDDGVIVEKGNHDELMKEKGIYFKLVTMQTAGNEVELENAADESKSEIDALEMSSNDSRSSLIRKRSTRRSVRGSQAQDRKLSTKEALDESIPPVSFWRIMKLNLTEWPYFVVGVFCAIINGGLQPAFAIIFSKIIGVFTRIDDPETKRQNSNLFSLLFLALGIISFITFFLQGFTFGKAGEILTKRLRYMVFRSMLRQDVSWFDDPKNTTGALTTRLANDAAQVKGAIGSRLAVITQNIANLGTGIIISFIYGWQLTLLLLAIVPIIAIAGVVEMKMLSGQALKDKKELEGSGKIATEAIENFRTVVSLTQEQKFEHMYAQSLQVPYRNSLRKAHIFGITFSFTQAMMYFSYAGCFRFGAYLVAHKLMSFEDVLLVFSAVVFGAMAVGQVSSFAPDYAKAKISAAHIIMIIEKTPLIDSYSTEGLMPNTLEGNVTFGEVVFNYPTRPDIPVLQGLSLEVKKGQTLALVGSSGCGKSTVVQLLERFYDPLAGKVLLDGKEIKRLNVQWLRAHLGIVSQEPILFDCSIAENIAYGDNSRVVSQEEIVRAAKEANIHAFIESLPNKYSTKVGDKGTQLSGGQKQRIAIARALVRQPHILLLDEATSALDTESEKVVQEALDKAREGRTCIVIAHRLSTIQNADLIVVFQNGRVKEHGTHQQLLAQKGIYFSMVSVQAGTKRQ

Row | SMILES | Activity
1 | C[C@]12CC[C@@H]3c4ccc(O)cc4CC[C@H]3[C@@H]1CC[C@@H]2O [ESTRADIOL] | is not a substrate [-]
2 | C[C@]12CC[C@@H]3c4ccc(O)cc4CC[C@H]3[C@@H]1C[C@@H](O)[C@@H]2O [ESTRIOL] | substrate [+]
3 | CC(=O)[C@H]1CC[C@H]2[C@@H]3CCC4=CC(=O)CC[C@]4(C)[C@H]3CC[C@]12C [PROGESTERONE] | is not a substrate [-]

Second part, the compound after the results:

Row | Activity | SMILES
4 | substrate [+] | C[C@]12CC[C@@H]3c4ccc(O)cc4CC[C@H]3[C@@H]1CCC2=O [ESTRONE]
5 | substrate [+] | C#C[C@]1(O)CC[C@H]2[C@@H]3CCc4cc(O)ccc4[C@H]3CC[C@@]21C [ETHINYL ESTRADIOL]
6 | is not a substrate [-] | C#C[C@]1(O)CC[C@H]2[C@@H]3CCC4=CC(=O)CC[C@@H]4[C@H]3CC[C@@]21C [NORETHINDRONE]
